Measurements reported in patent publication US20260097101A1, “Compositions for Use in the Treatment of Diabetes or Obesity” (Dia Beta Labs Ltd, priority 2022, published 2026).
Like-named read-outs stand apart in the source and are kept apart here. Values belong to the molecule of their own block, whether it stands above or below them. No end group written: not given here.

How the values were obtained:
BRIN-BD11 cells = experiment: Beta-cell proliferation (Ki-67 staining), with and without Y4 antagonist (S)-VU0637120; assay type: cell-based, rodent; conditions: 10^-8 and 10^-6 M, 18 h
Method: FIG. 1 illustrates the effects PP peptides on cell viability, insulin release, proliferation and apoptosis from rodent BRIN-BD11 cells. (A) Cells were incubated with test peptides (10^−8-10^−6 M) for 18 h prior to addition of MTT. (B, C) Cells were incubated (20 min) with (B) 16.7 mM glucose or (C) 16.7 mM glucose supplemented with alanine (10 mM), alone and together with test peptides (10^−12-10^−6 M) and insulin secretion assessed by RIA. (D, E) To assess effects on BRIN BD11 beta-cell proliferation and apoptosis and receptor selectivity, cells were incubated with test peptides (10^−8-10^−6 M) alone, or together with cytokine mix (IL-1β 100 Uml, IFN-γ 20 U/ml, TNF-α 200 U/ml), in the absence and presence of the Y4 antagonist, (S)-VU0637120, (10^−5 M), as specified, for 18 h prior to staining for (D) Ki-67 or (E) TUNEL. Values are mean±SEM (n=8). *p<0.05, **p<0.01 and ***p<0.001 compared with appropriate control culture, namely (A, D, E) media alone or (B, C) 16.7 mM glucose. ^Δp<0.05, ^ΔΔp<0.01, ^ΔΔΔp<0.001 compared to (C) 10 mM alanine or (E) cytokine mix. ^φp<0.05, ^φφp<0.01, ^φφφp<0.001 compared to effects in the absence of the NPYR4 antagonist (S)-VU0637120. […] Proliferation/TUNEL positive frequency was determined using the cell-counter function on ImageJ Software and expressed as % of total cells analysed, as described previously from our laboratory. […]

purified porcine DPP-4 = biological target: T1, purified porcine DPP-4 (Sus scrofa, UniProt P22411); experiment: In vitro DPP-4 stability (RP-HPLC and MALDI-ToF degradation profiles); assay type: in vitro ADME; conditions: for DPP-4 stability: pH 7.4
T1 construct: purchased Sigma-Aldrich
T1 sequence (P22411 whole entry): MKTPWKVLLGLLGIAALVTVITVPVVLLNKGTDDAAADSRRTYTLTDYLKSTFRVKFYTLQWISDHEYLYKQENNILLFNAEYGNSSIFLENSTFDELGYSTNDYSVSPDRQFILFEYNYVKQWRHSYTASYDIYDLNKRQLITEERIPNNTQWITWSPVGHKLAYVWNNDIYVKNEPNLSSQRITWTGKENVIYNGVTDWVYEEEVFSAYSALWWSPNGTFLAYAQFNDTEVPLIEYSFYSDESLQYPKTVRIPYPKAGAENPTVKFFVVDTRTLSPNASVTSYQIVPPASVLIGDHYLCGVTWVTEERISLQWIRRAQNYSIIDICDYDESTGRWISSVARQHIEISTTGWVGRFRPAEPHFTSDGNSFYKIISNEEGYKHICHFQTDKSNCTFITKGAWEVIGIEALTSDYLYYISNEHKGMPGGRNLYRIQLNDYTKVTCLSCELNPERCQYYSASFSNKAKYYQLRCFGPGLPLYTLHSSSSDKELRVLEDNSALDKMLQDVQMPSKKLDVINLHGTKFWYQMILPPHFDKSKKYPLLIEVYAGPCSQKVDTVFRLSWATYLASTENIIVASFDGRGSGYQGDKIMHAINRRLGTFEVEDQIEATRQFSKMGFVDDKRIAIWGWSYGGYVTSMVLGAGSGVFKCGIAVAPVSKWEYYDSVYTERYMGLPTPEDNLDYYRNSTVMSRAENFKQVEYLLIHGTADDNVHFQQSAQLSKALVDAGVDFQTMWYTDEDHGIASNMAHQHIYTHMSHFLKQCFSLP
Method: To establish in vitro stability of PP and [P^3]PP, peptides (10 μg) were incubated with purified porcine DPP-4 (5 mU in 50 mmol/l triethanolamine/HCl, pH 7.4; Sigma-Aldrich) for 0-8 hours and degradation profiles examined using RP-HPLC and MALDI-ToF, employing the same systems as outlined above. Sequence of native PP and [P3]PP using one letter amino acid notation. The amino acid substitution in [P3]PP is denoted by bold underlined text. In vitro DPP-4 stability was assessed following incubation of test peptides with purified DPP-4 (5 mU) for 0-8 h.

Molecule: GLP-1: GLP-1 (10^-8 and 10^-6 M) employed as control in proliferation studies
- BRIN-BD11 cell proliferation (Ki-67) (BRIN-BD11 cells): augmented

- DPP-4 stability (purified porcine DPP-4): <2 h
Molecule: CC[C@H](C)[C@H](NC(=O)[C@H](Cc1ccc(O)cc1)NC(=O)[C@H](CCCNC(=N)N)NC(=O)[C@H](CCCNC(=N)N)NC(=O)[C@H](CC(C)C)NC(=O)[C@H](CC(=O)O)NC(=O)[C@H](C)NC(=O)[C@H](C)NC(=O)[C@H](Cc1ccc(O)cc1)NC(=O)[C@H](CCC(N)=O)NC(=O)[C@H](C)NC(=O)[C@H](CCSC)NC(=O)[C@H](CCC(N)=O)NC(=O)[C@H](CCC(=O)O)NC(=O)[C@@H]1CCCN1C(=O)[C@@H](NC(=O)[C@H](C)NC(=O)[C@H](CC(N)=O)NC(=O)[C@H](CC(=O)O)NC(=O)CNC(=O)[C@@H]1CCCN1C(=O)[C@H](Cc1ccc(O)cc1)NC(=O)[C@@H](NC(=O)[C@@H]1CCCN1C(=O)[C@H](CCC(=O)O)NC(=O)[C@H](CC(C)C)NC(=O)[C@@H]1CCCN1C(=O)[C@H](C)N)C(C)C)[C@@H](C)O)C(=O)N[C@@H](CC(N)=O)C(=O)N[C@@H](CCSC)C(=O)N[C@@H](CC(C)C)C(=O)N[C@H](C(=O)N[C@@H](CCCNC(=N)N)C(=O)N1CCC[C@H]1C(=O)N[C@@H](CCCNC(=N)N)C(=O)N[C@@H](Cc1ccc(O)cc1)C(N)=O)[C@@H](C)O [Native PP]
- DPP-4 mediated degradation (purified porcine DPP-4): generation of the N-terminally cleaved product, PP(3-36)

- DPP-4 mediated degradation (purified porcine DPP-4; incubation with DPP-4, 0-8 h): completely resistant
- DPP-4 stability (purified porcine DPP-4; purified DPP-4 (5 mU), incubation 0-8 h): >8 h
Molecule: APPEPVYPGDNAKPEQMAQYAADLRRYINMKTRPRY-NH2 (C-terminus assumed) [[P^3]PP]
